# Experimental data taken from patent US20260224566A1, “Obicetrapib and Ezetimibe Combination Treatment and Fixed Dose Pharmaceutical Compositions” (NewAmsterdam Pharma B.V., priority 2023, published 2026).
# Key:
# Lp(a) = details: TA-8995-06, 12 weeks of treatment; cited from earlier work
# CETP = target: T1, CETP (Homo sapiens, UniProt P11597); assay: Example 12: CETP activity and mass in ApoE*3-Leiden.CETP mice; format: in vivo, mouse
# T1 construct: from tissue; host or cells: female ApoE*3-Leiden.CETP transgenic mice dosed in vivo
# T1 sequence (P11597 18-493): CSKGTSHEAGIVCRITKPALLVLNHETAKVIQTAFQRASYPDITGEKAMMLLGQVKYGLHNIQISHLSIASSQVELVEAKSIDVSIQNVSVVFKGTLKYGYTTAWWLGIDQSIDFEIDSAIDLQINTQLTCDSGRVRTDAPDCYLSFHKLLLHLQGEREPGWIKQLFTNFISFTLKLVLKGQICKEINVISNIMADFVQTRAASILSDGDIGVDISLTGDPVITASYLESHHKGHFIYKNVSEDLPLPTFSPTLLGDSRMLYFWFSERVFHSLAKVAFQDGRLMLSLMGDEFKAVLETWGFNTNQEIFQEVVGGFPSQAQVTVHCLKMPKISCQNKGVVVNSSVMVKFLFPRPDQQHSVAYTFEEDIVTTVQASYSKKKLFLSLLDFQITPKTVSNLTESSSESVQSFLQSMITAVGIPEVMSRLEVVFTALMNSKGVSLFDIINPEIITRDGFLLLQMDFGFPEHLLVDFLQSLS
# Description: To further elucidate the effects of the combination treatment, further studies were carried out using a standard human CETP transgenic knock-in mouse. As can be inferred from the experimental results reported herein, Obicetrapib alone and the combination with ezetimibe reduce non-HDL-C levels by increased VLDL lipolysis, increased VLDL clearance and elevated LDL receptor levels accompanied by an enhanced fecal bile acid and neutral sterol excretion.
# The experimental protocol is illustrated in FIG. 71, with time (t) measured in weeks. Female ApoE*3-Leiden.CETP transgenic mice were fed a Western diet with 0.05% w/w cholesterol (equivalent to daily human intake) with (i) no drug (control), or the same diet containing (ii) obicetrapib alone (2 mg/kg/day), (iii) ezetimibe alone (1 mg/kg/day) or (iv) the combination of obicetrapib and ezetimibe. In the experiment, the effects of the treatments on, amongst other things, plasma blood lipids and fecal bile acids and sterols were determined.
smiles,measurement,setting,value
"CCOC(=O)N1c2ccc(C(F)(F)F)cc2[C@@H](N(Cc2cc(C(F)(F)F)cc(C(F)(F)F)c2)c2ncc(OCCCC(=O)O)cn2)C[C@H]1CC [obicetrapib, {4-[(2-{[3,5-bis(trifluoromethyl)benzyl] [(2R,4S)-1-(ethoxycarbonyl)-2-ethyl-6-(trifluoromethyl)-1,2,3,4-tetrahydroquinolin-4-yl]amino}pyrimidin-5-yl)oxy]butanoic acid}]",Lp(a) levels,Lp(a),statistically significant reduction
same,cetp mass,CETP; data not shown,does not affect
same,"CETP activity, change","CETP; obicetrapib 2 mg/kg/day, ezetimibe 1 mg/kg/day in Western diet",−99%
